# Test results taken from patent US12344597B2, “Alkoxy-substituted pyridinyl derivatives as LPA1 receptor antagonists and their use in the treatment of fibrosis” (IDORSIA PHARMACEUTICALS LTD, priority 2018, dated 2025).
# Target: human LPA1 receptor (Homo sapiens (Human), UniProt Q92633)
# Assay: Beta-arrestin recruitment assay to determine IC50 values for human LPAR1
# Assay type: cell-based
# Settings: antagonist mode, Tango EDG2-bla U2OS cells, LPA 18:1 500 nM final
# How it was run: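 Tango EDG2-bla U2OS cells: LPA-driven beta-arrestin/TEV protease recruitment releases Gal4-VP16, inducing beta-lactamase reporter read with live-cell substrate. Cells seeded 20 h at 37 °C beforehand. IC50 is antagonist concentration inhibiting 50% of maximal response.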
# human LPA1 receptor, sequence (Q92633 whole entry): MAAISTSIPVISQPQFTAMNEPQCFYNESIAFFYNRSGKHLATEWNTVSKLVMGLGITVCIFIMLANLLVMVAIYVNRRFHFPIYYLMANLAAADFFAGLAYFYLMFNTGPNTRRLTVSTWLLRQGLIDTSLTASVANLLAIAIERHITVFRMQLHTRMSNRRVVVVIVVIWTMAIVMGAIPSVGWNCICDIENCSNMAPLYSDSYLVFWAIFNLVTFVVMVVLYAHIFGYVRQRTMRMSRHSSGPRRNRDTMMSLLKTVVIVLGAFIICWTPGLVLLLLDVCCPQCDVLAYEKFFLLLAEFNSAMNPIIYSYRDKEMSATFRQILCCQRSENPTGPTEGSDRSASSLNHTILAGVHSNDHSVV
row,Structure (SMILES),IC50
1,"CCOC(=O)c1c[nH]nc1CN1CC(C(=O)Nc2ccc(C)nc2OC(F)F)(c2ccccc2C(C)C)C1 [Ex 11-39, ethyl 3-((3-((2-(difluoromethoxy)-6-methylpyridin-3-yl)carbamoyl)-3-(2-isopropylphenyl)azetidin-1-yl)methyl)-1H-pyrazole-4-carboxylate]",10 nM
2,"Cc1ccc(NC(=O)C2(c3ccccc3C(C)C)CN(C(=O)OCC(C)(C)C(=O)O)C2)c(OC(F)F)n1 [Ex 14-10, 3-((3-((2-(difluoromethoxy)-6-methylpyridin-3-yl)carbamoyl)-3-(2-isopropylphenyl)azetidine-1-carbonyl)oxy)-2,2-dimethylpropanoic acid]",4 nM
3,"Cc1ccc(NC(=O)C2(c3ccccc3C(C)C)CN(C(=O)C(C)(C)CC(=O)O)C2)c(OC(F)F)n1 [Ex 12-91, 4-(3-((2-(difluoromethoxy)-6-methylpyridin-3-yl)carbamoyl)-3-(2-isopropylphenyl)azetidin-1-yl)-3,3-dimethyl-4-oxobutanoic acid]",5 nM
4,"Cc1ccc(NC(=O)C2(c3ccccc3C(C)C)CN(C(=O)CCOCC(=O)OCc3ccccc3)C2)c(OC(F)F)n1 [Ex 12-109, benzyl 2-(3-(3-((2-(difluoromethoxy)-6-methylpyridin-3-yl)carbamoyl)-3-(2-isopropylphenyl)azetidin-1-yl)-3-oxopropoxy)acetate]",20 nM
5,"Cc1ccc(NC(=O)C2(c3ccccc3C(C)C)CN(c3ccnc(C)n3)C2)c(OC(F)F)n1 [Ex 18-34, N-(2-(difluoromethoxy)-6-methylpyridin-3-yl)-3-(2-isopropylphenyl)-1-(2-methylpyrimidin-4-yl)azetidine-3-carboxamide]",3 nM
6,"Cc1ccc(NC(=O)C2(c3ccccc3C3=CCCC3)CNC2)c(OC(F)F)n1 [Ex 26, 3-(2-(cyclopent-1-en-1-yl)phenyl)-N-(2-(difluoromethoxy)-6-methylpyridin-3-yl)azetidine-3-carboxamide]",235 nM
7,"Cc1ccc(NC(=O)C2(c3ccccc3C(C)C)CCN(C(N)=O)CC2)c(OC(F)F)n1 [Ex 17-20, N4-(2-(difluoromethoxy)-6-methylpyridin-3-yl)-4-(2-isopropylphenyl)piperidine-1,4-dicarboxamide]",11 nM
8,"COc1ccc(C(C)C)c(C2(C(=O)Nc3ccc(C)nc3OC(F)F)CN(C(=O)CC(C)(C)C(=O)O)C2)c1 [Ex 39-6, 4-(3-((2-(difluoromethoxy)-6-methylpyridin-3-yl)carbamoyl)-3-(2-isopropyl-5-methoxyphenyl)azetidin-1-yl)-2,2-dimethyl-4-oxobutanoic acid]",56 nM
9,"Cc1ccc(NC(=O)C2(c3ccccc3C(C)C)CN(c3cnc(C4(C(=O)O)CC4)nc3)C2)c(OC(F)F)n1 [Ex 18-17, 1-(5-(3-((2-(difluoromethoxy)-6-methylpyridin-3-yl)carbamoyl)-3-(2-isopropylphenyl)azetidin-1-yl)pyrimidin-2-yl)cyclopropane-1-carboxylic acid]",8 nM
10,"COC(=O)c1ccc(N2CC(C(=O)Nc3ccc(C)nc3OC(F)F)(c3ccccc3C(C)C)C2)nc1 [Ex 18-1, Methyl 6-(3-((2-(difluoromethoxy)-6-methylpyridin-3-yl)carbamoyl)-3-(2-isopropylphenyl)azetidin-1-yl)nicotinate]",16 nM
11,"COCCNS(=O)(=O)N1CC(C(=O)Nc2cccnc2OC)(c2ccccc2)C1 [Ex 86, 1-(N-(2-methoxyethyl)sulfamoyl)-N-(2-methoxypyridin-3-yl)-3-phenylazetidine-3-carboxamide, reference compound]",> 10000 nM
12,"Cc1ccc(NC(=O)C2(c3ccccc3C(C)C)CN(C3COC3)C2)c(OC(F)F)n1 [Ex 11-20, N-(2-(difluoromethoxy)-6-methylpyridin-3-yl)-3-(2-isopropylphenyl)-1-(oxetan-3-yl)azetidine-3-carboxamide]",6 nM
13,"CCCNS(=O)(=O)N1CC(C(=O)Nc2ccc(C)nc2OC(F)F)(c2ccccc2C(C)C)C1 [Ex 15-11, N-(2-(difluoromethoxy)-6-methylpyridin-3-yl)-3-(2-isopropylphenyl)-1-(N-propylsulfamoyl)azetidine-3-carboxamide]",6 nM
14,"Cc1ccc(NC(=O)C2(c3ccccc3C(C)C)CN(C(=O)CCC(=O)O)C2)c(OC(F)F)n1 [Ex 12-71, 4-(3-((2-(difluoromethoxy)-6-methylpyridin-3-yl)carbamoyl)-3-(2-isopropylphenyl)azetidin-1-yl)-4-oxobutanoic acid]",10 nM
15,"CC(=O)NS(=O)(=O)CC(=O)N1CC(C(=O)Nc2ccc(C)nc2OC(F)F)(c2ccccc2C(C)C)C1 [Ex 16-3, 1-(2-(N-acetylsulfamoyl)acetyl)-N-(2-(difluoromethoxy)-6-methylpyridin-3-yl)-3-(2-isopropylphenyl)azetidine-3-carboxamide]",83 nM
16,"Cc1ccc(NC(=O)C2(c3ccccc3C(C)C)CN(C(=O)CCCC#N)C2)c(OC(F)F)n1 [Ex 12-1, 1-(4-cyanobutanoyl)-N-(2-(difluoromethoxy)-6-methylpyridin-3-yl)-3-(2-isopropylphenyl)azetidine-3-carboxamide]",15 nM

row,Structure (SMILES),IC50
1,"COC(=O)C(C)(C)CNC(=O)N1CC(C(=O)Nc2ccc(C)nc2OC(F)F)(c2ccccc2C(C)C)C1 [Ex 17-16, methyl 3-(3-((2-(difluoromethoxy)-6-methylpyridin-3-yl)carbamoyl)-3-(2-isopropylphenyl)azetidine-1-carboxamido)-2,2-dimethylpropanoate]",9 nM
2,"CCOC(=O)/C=C/C(=O)N1CC(C(=O)Nc2ccc(C)nc2OC(F)F)(c2ccccc2C(C)C)C1 [Ex 12-74, ethyl (E)-4-(3-((2-(difluoromethoxy)-6-methylpyridin-3-yl)carbamoyl)-3-(2-isopropylphenyl)azetidin-1-yl)-4-oxobut-2-enoate]",97 nM
3,"Cc1ccc(NC(=O)C2(c3ccccc3C(C)C)CN(C(=O)CCc3cc(O)no3)C2)c(OC(F)F)n1 [Ex 12-29, N-(2-(difluoromethoxy)-6-methylpyridin-3-yl)-1-(3-(3-hydroxyisoxazol-5-yl)propanoyl)-3-(2-isopropylphenyl)azetidine-3-carboxamide]",32 nM
4,"Cc1ccc(NC(=O)C2(c3ccccc3C(C)C)CN(c3ncc(C#N)cn3)C2)c(OC(F)F)n1 [Ex 18-24, 1-(5-cyanopyrimidin-2-yl)-N-(2-(difluoromethoxy)-6-methylpyridin-3-yl)-3-(2-isopropylphenyl)azetidine-3-carboxamide]",2 nM
5,"CC(C)c1ccccc1C1(C(=O)Nc2cc(F)cnc2OC(F)F)CN(S(N)(=O)=O)C1 [Ex 15-15, N-(2-(difluoromethoxy)-5-fluoropyridin-3-yl)-3-(2-isopropylphenyl)-1-sulfamoylazetidine-3-carboxamide]",10 nM
6,"CC(C)c1cccnc1C1(C(=O)Nc2ncc(Cl)cc2OC(F)F)CN(S(N)(=O)=O)C1 [Example 81-7, N-(5-chloro-3-(difluoromethoxy)pyridin-2-yl)-3-(3-isopropylpyridin-2-yl)-1-sulfamoylazetidine-3-carboxamide]",5 nM
7,"COC(=O)[C@H](C)NC(=O)N1CC(C(=O)Nc2ccc(C)nc2OC(F)F)(c2ccccc2C(C)C)C1 [Ex 17-8, methyl (3-((2-(difluoromethoxy)-6-methylpyridin-3-yl)carbamoyl)-3-(2-isopropylphenyl)azetidine-1-carbonyl)-L-alaninate]",4 nM
8,"COC(=O)c1cc(S(=O)(=O)N2CC(C(=O)Nc3ccc(C)nc3OC(F)F)(c3ccccc3C(C)C)C2)on1 [Ex 13-26, methyl 5-((3-((2-(difluoromethoxy)-6-methylpyridin-3-yl)carbamoyl)-3-(2-isopropylphenyl)azetidin-1-yl)sulfonyl)isoxazole-3-carboxylate]",25 nM
9,"Cc1ccc(NC(=O)C2(c3ccccc3C(C)C)CN(C(=O)CN[C@@H](C)CO)C2)c(OC(F)F)n1 [Ex 12-59, (S)-N-(2-(difluoromethoxy)-6-methylpyridin-3-yl)-1-((R)-(1-hydroxypropan-2-yl)glycyl)-3-(2-isopropylphenyl)azetidine-3-carboxamide]",10 nM
10,"CC(C)c1ccccc1C1(C(=O)Nc2ncc(Cl)cc2OC(F)F)CN(C(=O)CC(C)(C)C(=O)O)C1 [Ex 79-3, 4-(3-((5-chloro-3-(difluoromethoxy)pyridin-2-yl)carbamoyl)-3-(2-isopropylphenyl)azetidin-1-yl)-2,2-dimethyl-4-oxobutanoic acid]",17 nM
11,"C=C(C)C(=O)OCCNC(=O)N1CCC(C(=O)Nc2ccc(C)nc2OC(F)F)(c2ccccc2C(C)C)CC1 [Ex 17-21, 2-(4-((2-(difluoromethoxy)-6-methylpyridin-3-yl)carbamoyl)-4-(2-isopropylphenyl)piperidine-1-carboxamido)ethyl methacrylate]",5 nM
12,"Cc1ccc(NC(=O)C2(c3ccccc3C(C)C)CN(c3ncc(C(=O)O)n3C)C2)c(OC(F)F)n1 [Ex 18-36, 2-(3-((2-(difluoromethoxy)-6-methylpyridin-3-yl)carbamoyl)-3-(2-isopropylphenyl)azetidin-1-yl)-1-methyl-1H-imidazole-5-carboxylic acid]",16 nM
13,"Cc1ccc(NC(=O)C2(c3ccccc3C(C)C)CN(Cc3coc(C)n3)C2)c(OC(F)F)n1 [Ex 11-21, N-(2-(difluoromethoxy)-6-methylpyridin-3-yl)-3-(2-isopropylphenyl)-1-((2-methyloxazol-4-yl)methyl)azetidine-3-carboxamide]",60 nM
14,"Cc1ccc(NC(=O)C2(c3ccccc3C(C)C)CN(C(=O)CN(C)CC(=O)O)C2)c(OC(F)F)n1 [Ex 12-142, N-(2-(3-((2-(difluoromethoxy)-6-methylpyridin-3-yl)carbamoyl)-3-(2-isopropylphenyl)azetidin-1-yl)-2-oxoethyl)-N-methylglycine]",18 nM
15,"Cc1ccc(NC(=O)C2(c3ccccc3C(C)C)CN(S(=O)(=O)CCCC(=O)O)C2)c(OC(F)F)n1 [Ex 13-17, 4-((3-((2-(difluoromethoxy)-6-methylpyridin-3-yl)carbamoyl)-3-(2-isopropylphenyl)azetidin-1-yl)sulfonyl)butanoic acid]",7 nM
